Results on five compounds are retold here after paper PMC5540273, “Progress towards a public chemogenomic set for protein kinases and a call for contributions” (PLoS ONE, 2017).

Holding throughout (test): KINOMEscan competition binding
In one experiment the target is LTK (Homo sapiens, UniProt P29376). The following applies: read-out: %Inh LTK.
The next experiment concerns the target T1, CSF1R-autoinhibited (Homo sapiens, UniProt P07333).
T1 sequence (P07333 539-972 limits assumed): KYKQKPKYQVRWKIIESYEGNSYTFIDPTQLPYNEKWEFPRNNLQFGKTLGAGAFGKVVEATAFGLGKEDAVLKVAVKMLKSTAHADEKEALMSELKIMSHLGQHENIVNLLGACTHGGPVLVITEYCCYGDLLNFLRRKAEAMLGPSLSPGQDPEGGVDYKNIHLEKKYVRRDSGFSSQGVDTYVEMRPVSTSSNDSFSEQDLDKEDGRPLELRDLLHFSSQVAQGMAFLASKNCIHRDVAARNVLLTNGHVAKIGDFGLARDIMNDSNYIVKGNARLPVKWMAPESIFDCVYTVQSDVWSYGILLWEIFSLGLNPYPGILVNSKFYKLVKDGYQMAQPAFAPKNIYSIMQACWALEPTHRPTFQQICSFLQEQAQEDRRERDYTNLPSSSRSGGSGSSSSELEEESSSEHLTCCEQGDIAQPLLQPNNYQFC
The settings on record: read-out: %Inh CSF1R-autoinhibited.

Another experiment concerns the target T2, GRK1 (Homo sapiens, UniProt Q15835).
T2 sequence (Q15835 1-563): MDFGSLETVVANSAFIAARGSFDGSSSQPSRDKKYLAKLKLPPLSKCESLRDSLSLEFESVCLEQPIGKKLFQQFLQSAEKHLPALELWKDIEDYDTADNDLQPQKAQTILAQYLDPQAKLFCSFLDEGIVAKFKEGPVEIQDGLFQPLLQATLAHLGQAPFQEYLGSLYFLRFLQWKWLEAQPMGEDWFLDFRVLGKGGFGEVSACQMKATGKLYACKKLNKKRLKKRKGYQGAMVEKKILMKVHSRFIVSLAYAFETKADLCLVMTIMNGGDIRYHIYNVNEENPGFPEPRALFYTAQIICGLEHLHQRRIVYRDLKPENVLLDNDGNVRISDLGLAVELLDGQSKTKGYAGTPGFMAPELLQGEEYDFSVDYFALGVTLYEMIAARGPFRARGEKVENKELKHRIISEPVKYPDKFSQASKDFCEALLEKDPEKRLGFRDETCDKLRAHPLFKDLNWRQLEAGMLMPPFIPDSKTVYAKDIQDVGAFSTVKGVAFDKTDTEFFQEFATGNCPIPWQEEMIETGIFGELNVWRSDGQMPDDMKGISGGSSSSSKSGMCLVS
The settings on record: read-out: %Inh GRK1.

The target in a further experiment is T3, FLT3-autoinhibited (Homo sapiens, UniProt P36888).
T3 sequence (P36888 27-993): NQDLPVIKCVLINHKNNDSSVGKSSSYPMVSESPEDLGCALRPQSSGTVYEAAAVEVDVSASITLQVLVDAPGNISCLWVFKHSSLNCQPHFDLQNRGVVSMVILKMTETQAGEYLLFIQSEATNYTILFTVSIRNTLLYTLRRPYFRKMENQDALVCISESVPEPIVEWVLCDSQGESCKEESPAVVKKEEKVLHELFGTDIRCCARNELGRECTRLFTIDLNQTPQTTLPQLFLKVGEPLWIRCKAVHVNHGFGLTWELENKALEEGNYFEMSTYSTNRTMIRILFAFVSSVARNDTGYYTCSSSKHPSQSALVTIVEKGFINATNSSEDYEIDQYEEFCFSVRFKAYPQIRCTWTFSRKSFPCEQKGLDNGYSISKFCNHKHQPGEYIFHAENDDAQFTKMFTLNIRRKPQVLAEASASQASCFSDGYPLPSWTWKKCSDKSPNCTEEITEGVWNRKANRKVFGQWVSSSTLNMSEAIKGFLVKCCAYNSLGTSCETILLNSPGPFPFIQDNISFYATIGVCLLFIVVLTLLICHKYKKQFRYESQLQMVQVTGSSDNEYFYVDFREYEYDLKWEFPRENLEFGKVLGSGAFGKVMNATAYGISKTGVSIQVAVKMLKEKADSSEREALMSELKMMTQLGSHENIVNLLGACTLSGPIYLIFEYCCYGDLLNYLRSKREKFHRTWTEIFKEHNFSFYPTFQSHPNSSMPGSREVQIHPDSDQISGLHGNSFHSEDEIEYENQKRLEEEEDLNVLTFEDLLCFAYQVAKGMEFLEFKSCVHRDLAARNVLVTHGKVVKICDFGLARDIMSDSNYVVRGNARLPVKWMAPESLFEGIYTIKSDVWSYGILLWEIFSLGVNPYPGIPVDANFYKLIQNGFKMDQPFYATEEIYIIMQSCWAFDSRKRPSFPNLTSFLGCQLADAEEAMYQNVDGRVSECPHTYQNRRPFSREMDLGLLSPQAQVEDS
The settings on record: read-out: %Inh FLT3-autoinhibited.

The target in a further experiment is JNK3 (Homo sapiens, UniProt P53779). The settings on record: read-out: %Inh JNK3.
Sequence of JNK3 (P53779 whole entry): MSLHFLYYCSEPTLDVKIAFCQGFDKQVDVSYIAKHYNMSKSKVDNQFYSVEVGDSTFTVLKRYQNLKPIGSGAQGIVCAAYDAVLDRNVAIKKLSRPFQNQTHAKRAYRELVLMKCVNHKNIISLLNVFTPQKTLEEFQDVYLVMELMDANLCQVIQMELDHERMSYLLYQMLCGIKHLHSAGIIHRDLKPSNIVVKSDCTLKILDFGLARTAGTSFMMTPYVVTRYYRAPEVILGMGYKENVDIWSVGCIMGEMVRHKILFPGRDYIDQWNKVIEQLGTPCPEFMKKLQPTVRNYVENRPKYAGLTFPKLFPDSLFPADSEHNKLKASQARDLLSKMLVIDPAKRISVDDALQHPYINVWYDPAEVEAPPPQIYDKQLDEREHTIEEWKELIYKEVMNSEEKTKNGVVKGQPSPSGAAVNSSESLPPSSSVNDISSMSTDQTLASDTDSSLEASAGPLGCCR
The target of a further experiment is CDK8 (Homo sapiens, UniProt P49336). The following applies: read-out: %Inh CDK8.
Sequence of CDK8 (P49336 whole entry): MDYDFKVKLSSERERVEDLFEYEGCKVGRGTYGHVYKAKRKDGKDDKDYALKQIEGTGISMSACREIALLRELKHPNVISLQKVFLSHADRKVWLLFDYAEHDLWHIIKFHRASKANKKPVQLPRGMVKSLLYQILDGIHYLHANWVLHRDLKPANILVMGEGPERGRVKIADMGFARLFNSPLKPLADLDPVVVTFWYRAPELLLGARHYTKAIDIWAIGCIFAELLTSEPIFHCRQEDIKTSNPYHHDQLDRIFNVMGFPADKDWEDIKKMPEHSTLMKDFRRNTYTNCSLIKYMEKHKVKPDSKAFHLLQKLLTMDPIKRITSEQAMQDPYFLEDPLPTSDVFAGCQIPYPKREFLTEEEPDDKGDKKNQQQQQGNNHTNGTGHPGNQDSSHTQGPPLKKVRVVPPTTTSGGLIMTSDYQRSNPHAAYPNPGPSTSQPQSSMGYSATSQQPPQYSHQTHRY
A further experiment has as its target BMPR1A (Homo sapiens, UniProt P36894). The following applies: read-out: %Inh BMPR1A.
The target in the next experiment is HIPK2 (Homo sapiens, UniProt Q9H2X6). The settings on record: read-out: %Inh HIPK2.
Sequence of HIPK2 (Q9H2X6 whole entry): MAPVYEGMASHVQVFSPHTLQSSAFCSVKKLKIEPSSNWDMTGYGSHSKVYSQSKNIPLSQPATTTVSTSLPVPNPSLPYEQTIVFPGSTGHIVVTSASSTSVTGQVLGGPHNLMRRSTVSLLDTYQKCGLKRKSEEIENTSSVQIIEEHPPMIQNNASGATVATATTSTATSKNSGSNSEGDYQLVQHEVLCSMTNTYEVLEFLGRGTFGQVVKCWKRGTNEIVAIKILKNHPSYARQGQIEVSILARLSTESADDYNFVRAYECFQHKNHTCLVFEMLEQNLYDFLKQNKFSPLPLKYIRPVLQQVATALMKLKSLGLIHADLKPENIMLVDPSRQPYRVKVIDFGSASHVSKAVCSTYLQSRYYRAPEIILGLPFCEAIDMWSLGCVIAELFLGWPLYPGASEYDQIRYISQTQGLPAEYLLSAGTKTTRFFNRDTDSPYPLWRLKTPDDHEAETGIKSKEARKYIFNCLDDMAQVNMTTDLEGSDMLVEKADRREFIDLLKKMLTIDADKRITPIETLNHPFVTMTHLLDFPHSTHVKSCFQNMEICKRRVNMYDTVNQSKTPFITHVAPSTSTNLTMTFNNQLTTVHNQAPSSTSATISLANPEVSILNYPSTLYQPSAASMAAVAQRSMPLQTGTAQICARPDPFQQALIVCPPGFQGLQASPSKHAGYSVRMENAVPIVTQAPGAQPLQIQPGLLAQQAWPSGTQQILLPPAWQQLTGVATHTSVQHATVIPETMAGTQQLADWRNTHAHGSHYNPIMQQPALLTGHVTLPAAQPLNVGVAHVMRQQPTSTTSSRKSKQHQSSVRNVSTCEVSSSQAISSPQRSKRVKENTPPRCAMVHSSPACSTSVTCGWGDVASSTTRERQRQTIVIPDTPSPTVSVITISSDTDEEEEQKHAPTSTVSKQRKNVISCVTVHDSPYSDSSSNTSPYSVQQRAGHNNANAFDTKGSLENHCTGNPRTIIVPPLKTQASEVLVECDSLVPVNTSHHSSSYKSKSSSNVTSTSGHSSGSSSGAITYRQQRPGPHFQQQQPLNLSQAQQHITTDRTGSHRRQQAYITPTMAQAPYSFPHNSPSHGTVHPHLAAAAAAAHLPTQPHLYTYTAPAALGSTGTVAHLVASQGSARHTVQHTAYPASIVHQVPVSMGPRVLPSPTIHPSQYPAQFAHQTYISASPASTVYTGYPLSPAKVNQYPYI

Sequence of LTK (P29376 17-864): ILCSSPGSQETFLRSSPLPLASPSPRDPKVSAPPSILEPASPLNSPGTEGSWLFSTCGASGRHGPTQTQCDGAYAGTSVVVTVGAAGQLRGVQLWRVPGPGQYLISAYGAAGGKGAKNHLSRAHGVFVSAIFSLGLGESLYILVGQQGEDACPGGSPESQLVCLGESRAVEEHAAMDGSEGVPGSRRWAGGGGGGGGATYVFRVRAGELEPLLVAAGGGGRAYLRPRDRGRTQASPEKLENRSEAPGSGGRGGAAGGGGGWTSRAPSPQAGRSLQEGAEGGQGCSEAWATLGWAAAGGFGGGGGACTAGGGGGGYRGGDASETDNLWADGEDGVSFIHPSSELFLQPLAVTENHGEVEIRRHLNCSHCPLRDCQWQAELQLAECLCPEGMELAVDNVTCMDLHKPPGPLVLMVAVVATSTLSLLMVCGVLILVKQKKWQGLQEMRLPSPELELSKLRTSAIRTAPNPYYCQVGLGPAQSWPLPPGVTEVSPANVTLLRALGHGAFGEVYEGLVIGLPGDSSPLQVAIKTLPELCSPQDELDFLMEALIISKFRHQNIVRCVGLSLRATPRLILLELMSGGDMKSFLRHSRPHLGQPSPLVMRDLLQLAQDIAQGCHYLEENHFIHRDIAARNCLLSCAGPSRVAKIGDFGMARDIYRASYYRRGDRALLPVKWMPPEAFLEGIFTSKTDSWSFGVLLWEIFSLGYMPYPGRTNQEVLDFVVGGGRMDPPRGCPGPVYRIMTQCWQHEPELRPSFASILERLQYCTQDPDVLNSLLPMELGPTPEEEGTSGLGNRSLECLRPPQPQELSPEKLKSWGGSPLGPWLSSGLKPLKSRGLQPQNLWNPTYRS
Sequence of BMPR1A (P36894 24-532): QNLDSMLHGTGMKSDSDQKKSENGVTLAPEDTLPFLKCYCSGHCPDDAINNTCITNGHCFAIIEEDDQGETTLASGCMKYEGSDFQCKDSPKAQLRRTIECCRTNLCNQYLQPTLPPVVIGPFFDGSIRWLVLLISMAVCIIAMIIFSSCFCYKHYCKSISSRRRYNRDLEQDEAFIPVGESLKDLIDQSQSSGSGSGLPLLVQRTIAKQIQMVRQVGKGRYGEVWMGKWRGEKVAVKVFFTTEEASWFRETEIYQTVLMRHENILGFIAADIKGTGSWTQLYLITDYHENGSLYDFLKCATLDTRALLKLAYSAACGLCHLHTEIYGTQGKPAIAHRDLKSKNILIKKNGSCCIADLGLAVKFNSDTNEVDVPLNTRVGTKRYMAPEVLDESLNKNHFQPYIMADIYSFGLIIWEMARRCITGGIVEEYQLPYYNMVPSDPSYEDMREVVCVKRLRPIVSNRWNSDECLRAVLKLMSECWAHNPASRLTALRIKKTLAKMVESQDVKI

With `O=c1cc(N2CCOCC2)nc2n(Cc3cccc(Cl)c3Cl)c(C3CC3)nn12` [UNC10225469A], the inhibition at 1 µM on LTK, at CSF1R-autoinhibited, on GRK1, on FLT3-autoinhibited, at JNK3 and at CDK8 was 0% in each case. For the same compound, the inhibition at 1 µM was determined as 15% at BMPR1A and 0% on HIPK2.
As to `COc1cccc(OC)c1C(=O)Nc1cccc(-c2nn3ccccc3c2-c2ccnc(Nc3cccc(F)c3)n2)c1` [UNC10225310A], the inhibition at 1 µM on LTK was 13%; at CSF1R-autoinhibited it was 4%; on GRK1, 0%; on FLT3-autoinhibited, 0%; on JNK3, 0%; on CDK8, 0%. The inhibition at 1 µM at BMPR1A was 9%; at HIPK2, 0%.
As to `CS(=O)(=O)Cc1ccc(Nc2nccc(-c3c(-c4cccc(NC(=O)C5CCCCC5)c4)nn4ncccc34)n2)cc1` [UNC10225159A], the inhibition at 1 µM on LTK was 0%; at CSF1R-autoinhibited, 35%; on GRK1, 0%; on FLT3-autoinhibited it was 25%; on JNK3, 36%; at CDK8 it was 0%. In addition, the results for the inhibition at 1 µM at BMPR1A and on HIPK2 were 0% and 14%, respectively.
Turning to `Cc1ccc(NC(=O)Nc2cccc(C(F)(F)F)c2)cc1` [UNC10225187A], the inhibition at 1 µM turned out to be 0% on LTK; 0% at CSF1R-autoinhibited; 2% at GRK1; 0% on FLT3-autoinhibited; 46% at JNK3; 0% at CDK8. The inhibition at 1 µM turned out to be 94.6% at BMPR1A and 0% on HIPK2.
Take `Cn1cc(-c2cnc(N)c3c(-c4ccc5c(c4)CCN5C(=O)Cc4ccccc4)csc23)cn1` [UNC10225012A]: the inhibition at 1 µM came out at 0% on LTK; 39% at CSF1R-autoinhibited; 0% at GRK1; 0% on FLT3-autoinhibited; 0% on JNK3; 19% at CDK8. Besides, the inhibition at 1 µM on BMPR1A stood at 1%; on HIPK2, 0%.
